Assay results from ChEMBL document CHEMBL1629541, “Synthesis and structure-activity relationships of aza- and diazabiphenyl analogues of the antitubercular drug (6S)-2-nitro-6-{[4-(trifluoromethoxy)benzyl]oxy}-6,7-dihydro-5H-imidazo[2,1-b][1,3]oxazine (PA-824)” (J Med Chem, 2010).
≈ marks a conversion by molar mass, not a printed value.

Assays:
[1] = physchem; conditions: water, pH 1
Description: Solubility of the compound in water at pH 1.0 by HPLC

[2] = in vitro; conditions: human, liver microsomes
Description: Metabolic stability in human liver microsomes assessed as compound remaining after 1 hr

[3] = in vitro; conditions: CD1, mouse, liver microsomes
Description: Metabolic stability in CD1 mouse liver microsomes assessed as compound remaining after 1 hr

[4] = physchem; conditions: water, pH 7
Description: Solubility of the compound in water at pH 7.0 by HPLC

[5] = test system: Mycobacterium tuberculosis; assay: microbe, parasite or virus in culture; conditions: H37Rv
[6] = test system: Mycobacterium tuberculosis; assay: microbe, parasite or virus in culture; conditions: H37Rv; remark: listed apart in the source
Description: Antitubercular activity against Mycobacterium tuberculosis H37Rv by LORA method

[7] = AUC (0-infinity) in CD1 mouse plasma at 40 mg/kg, po administered as single dose; format: ADME, organism-based; design: time infinity, dose 40 mg/kg, route oral
[8] = Cmax in CD1 mouse plasma at 40 mg/kg, po administered as single dose; format: ADME, organism-based; design: dose 40 mg/kg, route oral
[9] = Cmax in CD1 mouse lung at 40 mg/kg, po administered as single dose; format: ADME, organism-based; design: dose 40 mg/kg, route oral
[10] = AUC (0-infinity) in CD1 mouse lung at 40 mg/kg, po administered as single dose; format: ADME, organism-based; design: time infinity, dose 40 mg/kg, route oral
[11] = Thermodynamic solubility in aqueous buffer at pH 7.4 at 20 degC by HPLC; format: physicochemical
[12] = Half life in CD1 mouse lung at 40 mg/kg, po administered as single dose; format: ADME, organism-based; design: dose 40 mg/kg, route oral
[13] = Half life in CD1 mouse plasma at 40 mg/kg, po administered as single dose; format: ADME, organism-based; design: dose 40 mg/kg, route oral
[14] = Thermodynamic solubility in aqueous buffer at pH 1 at 20 degC by HPLC; format: physicochemical; conditions: aqueous buffer

Compound	solubility [4] [µg/mL]	MIC [5] [µM]	MIC [6] [µM]	other results
O=[N+]([O-])c1cn2c(n1)OC[C@@H](OCc1cncc(-c3ccc(F)cc3)c1)C2	45 (≈ 122 µM)	0.31 (≈ 0.115 µg/mL)	7.7 (≈ 2.85 µg/mL)	solubility [1]: 41000 µg/mL (≈ 111000 µM); remaining at 1 h [2]: 71%; remaining at 1 h [3]: 39%
O=[N+]([O-])c1cn2c(n1)OC[C@@H](OCc1ccnc(-c3ccc(OC(F)(F)F)cc3)c1)C2	3.9 (≈ 8.94 µM)	0.035 (≈ 0.0153 µg/mL)	2.4 (≈ 1.05 µg/mL)	remaining at 1 h [2]: 54%; remaining at 1 h [3]: 31%
O=[N+]([O-])c1cn2c(n1)OC[C@@H](OCc1ccc(-c3ccc(C(F)(F)F)cn3)cn1)C2	5.9 (≈ 14 µM)	0.83 (≈ 0.35 µg/mL)	9.6 (≈ 4.04 µg/mL)	solubility [1]: 442 µg/mL (≈ 1050 µM)
O=[N+]([O-])c1cn2c(n1)OC[C@@H](OCc1ccc(-c3ccc(Cl)c(OC(F)(F)F)c3)cn1)C2	0.8 (≈ 1.7 µM)	0.06 (≈ 0.0282 µg/mL)	2.3 (≈ 1.08 µg/mL)	–
O=[N+]([O-])c1cn2c(n1)OC[C@@H](OCc1ccc(-c3cccc(F)n3)cn1)C2	41 (≈ 110 µM)	1.4 (≈ 0.52 µg/mL)	20 (≈ 7.43 µg/mL)	–
O=[N+]([O-])c1cn2c(n1)OC[C@@H](OCc1ccc(-c3ccc(C(F)(F)F)nc3)cn1)C2	12 (≈ 28.5 µM)	0.24 (≈ 0.101 µg/mL)	16 (≈ 6.74 µg/mL)	–
O=[N+]([O-])c1cn2c(n1)OC[C@@H](OCc1ccc(-c3ccc(F)nc3)cn1)C2	43 (≈ 116 µM)	0.49 (≈ 0.182 µg/mL)	19 (≈ 7.06 µg/mL)	–
O=[N+]([O-])c1cn2c(n1)OC[C@@H](OCc1ccc(-c3cncc(F)c3)cn1)C2	130 (≈ 350 µM)	2.6 (≈ 0.965 µg/mL)	21 (≈ 7.8 µg/mL)	–
COc1ccc(-c2ccc(CO[C@@H]3COc4nc([N+](=O)[O-])cn4C3)nc2)cn1	24 (≈ 62.6 µM)	0.36 (≈ 0.138 µg/mL)	9.6 (≈ 3.68 µg/mL)	–
O=[N+]([O-])c1cn2c(n1)OC[C@@H](OCc1ccc(-c3ccncc3F)cn1)C2	700 (≈ 1890 µM)	3.2 (≈ 1.19 µg/mL)	20 (≈ 7.43 µg/mL)	–
O=[N+]([O-])c1cn2c(n1)OC[C@@H](OCc1ccc(-c3ccnc(F)c3)cn1)C2	42 (≈ 113 µM)	1.7 (≈ 0.631 µg/mL)	14 (≈ 5.2 µg/mL)	–
O=[N+]([O-])c1cn2c(n1)OC[C@@H](OCc1ccc(-c3ccc(C(F)(F)F)cc3)nc1)C2	1.2 (≈ 2.85 µM)	0.053 (≈ 0.0223 µg/mL)	0.53 (≈ 0.223 µg/mL)	–
N#Cc1ccc(-c2ccc(CO[C@@H]3COc4nc([N+](=O)[O-])cn4C3)cn2)cc1	2.9 (≈ 7.68 µM)	0.18 (≈ 0.0679 µg/mL)	6 (≈ 2.26 µg/mL)	–
O=[N+]([O-])c1cn2c(n1)OC[C@@H](OCc1ccc(-c3ccc(F)cc3)nc1)C2	–	0.06 (≈ 0.0222 µg/mL)	2.9 (≈ 1.07 µg/mL)	AUC(0-inf) [7]: 61 µg·h/mL; solubility [1]: 1000 µg/mL (≈ 2700 µM); Cmax [8]: 5300 ng/mL; remaining at 1 h [2]: 88%; Cmax [9]: 11000 ng/mL; AUC(0-inf) [10]: 136 µg·h/mL; remaining at 1 h [3]: 80%; solubility thermodynamic [11]: 5.9 µg/mL (≈ 15.9 µM); half-life [12]: 2.8 h; half-life [13]: 2.7 h; solubility thermodynamic [14]: > 93 µg/mL
O=[N+]([O-])c1cn2c(n1)OC[C@@H](OCc1ccc(-c3ccc(OC(F)F)cc3)nc1)C2	1.6 (≈ 3.82 µM)	0.02 (≈ 0.00837 µg/mL)	3.4 (≈ 1.42 µg/mL)	–
COc1ccc(-c2ccc(CO[C@@H]3COc4nc([N+](=O)[O-])cn4C3)cn2)cc1F	2.1 (≈ 5.25 µM)	0.09 (≈ 0.036 µg/mL)	1.9 (≈ 0.761 µg/mL)	–
O=[N+]([O-])c1cn2c(n1)OC[C@@H](OCc1ccc(-c3ccc(OC(F)(F)F)c(Cl)c3)nc1)C2	–	0.017 (≈ 0.008 µg/mL)	1 (≈ 0.471 µg/mL)	AUC(0-inf) [7]: 88 µg·h/mL; solubility [1]: 39 µg/mL (≈ 82.8 µM); Cmax [8]: 2900 ng/mL; remaining at 1 h [2]: 87%; Cmax [9]: 10000 ng/mL; AUC(0-inf) [10]: 284 µg·h/mL; remaining at 1 h [3]: 77%; solubility thermodynamic [11]: 0.19 µg/mL (≈ 0.404 µM); half-life [12]: 14 h; half-life [13]: 22 h; solubility thermodynamic [14]: 17 µg/mL (≈ 36.1 µM)
O=[N+]([O-])c1cn2c(n1)OC[C@@H](OCc1ccc(-c3ccc(OC(F)(F)F)cc3F)nc1)C2	2.2 (≈ 4.84 µM)	0.047 (≈ 0.0214 µg/mL)	1.9 (≈ 0.863 µg/mL)	–
O=[N+]([O-])c1cn2c(n1)OC[C@@H](OCc1ccc(-c3ccc(Cl)c(OC(F)(F)F)c3)nc1)C2	0.22 (≈ 0.467 µM)	0.18 (≈ 0.0847 µg/mL)	2.4 (≈ 1.13 µg/mL)	–
O=[N+]([O-])c1cn2c(n1)OC[C@@H](OCc1ccc(-c3ccc(C(F)(F)F)nc3)nc1)C2	7 (≈ 16.6 µM)	0.19 (≈ 0.0801 µg/mL)	17 (≈ 7.16 µg/mL)	–
O=[N+]([O-])c1cn2c(n1)OC[C@@H](OCc1ccc(-c3ccc(F)nc3)nc1)C2	51 (≈ 137 µM)	0.37 (≈ 0.137 µg/mL)	13 (≈ 4.83 µg/mL)	–
COc1ccc(-c2ccc(CO[C@@H]3COc4nc([N+](=O)[O-])cn4C3)cn2)cn1	51 (≈ 133 µM)	0.24 (≈ 0.092 µg/mL)	7.3 (≈ 2.8 µg/mL)	–
O=[N+]([O-])c1cn2c(n1)OC[C@@H](OCc1ccc(-c3ccc(C(F)(F)F)cc3)nn1)C2	5.4 (≈ 12.8 µM)	0.06 (≈ 0.0253 µg/mL)	2.8 (≈ 1.18 µg/mL)	–
